Values of other authors, collected in PMC6166790 (Nature, 2018).

Tested on: CLR/RAMP2 or CLR/RAMP3

receptor response selectivity: selective AM responses
Substance: adrenomedullin [AM]
